Data as given in patent publication US11142526B2, “Spirocycle compounds and methods of making and using same” (H. Lundbeck A/S, priority 2017, dated 2021).
Read-outs that look alike come from different tables or passages of the source.

Assays:
[1] = target: MAGL (Mus musculus (Mouse), UniProt O35678); test: In vitro competitive activity-based protein profiling, mouse brain proteome; format: biochemical; conditions: for inhibition at 1 µM: mouse; for IC50: mouse brain
[2] = target: MAGL (Homo sapiens (Human), UniProt Q99685); test: In vitro competitive activity-based protein profiling (gel-based, FP-Rh or HT-01 probe); format: biochemical
Method: In Vitro Competitive Activity-Based Protein Profiling.
Proteomes (human prefrontal cortex or cell membrane fractions) (50 μL, 1.0 mg/mL total protein concentration) were preincubated with varying concentrations of inhibitors at 37° C. After 30 min, FP-Rh or HT-01 (1.0 μL, 50 μM in DMSO) was added and the mixture was incubated for another 30 min at room temperature. Reactions were quenched with SDS loading buffer (15 μL—4×) and run on SDS-PAGE.

[3] = human PC3, read-out: MAGL % Inhibition at 1 μM (human PC3)
[4] = human PFC (prefrontal cortex), read-out: MAGL % Inhibition at 1 μM (human PFC)
[5] = human PC3, read-out: MAGL Human PC3 (IC50)
[6] = human PFC (prefrontal cortex), read-out: MAGL Human PFC (IC50)

Sequence of MAGL (Homo sapiens (Human), UniProt Q99685) (Q99685 whole entry): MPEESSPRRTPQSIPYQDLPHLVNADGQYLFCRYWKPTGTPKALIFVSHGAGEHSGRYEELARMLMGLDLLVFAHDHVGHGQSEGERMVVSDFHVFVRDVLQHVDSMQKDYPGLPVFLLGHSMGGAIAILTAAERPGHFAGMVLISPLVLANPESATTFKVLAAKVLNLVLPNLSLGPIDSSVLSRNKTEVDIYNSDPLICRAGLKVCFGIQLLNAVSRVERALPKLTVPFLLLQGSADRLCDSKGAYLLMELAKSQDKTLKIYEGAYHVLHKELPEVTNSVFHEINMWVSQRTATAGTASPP
Sequence of MAGL (Mus musculus (Mouse), UniProt O35678) (O35678 whole entry): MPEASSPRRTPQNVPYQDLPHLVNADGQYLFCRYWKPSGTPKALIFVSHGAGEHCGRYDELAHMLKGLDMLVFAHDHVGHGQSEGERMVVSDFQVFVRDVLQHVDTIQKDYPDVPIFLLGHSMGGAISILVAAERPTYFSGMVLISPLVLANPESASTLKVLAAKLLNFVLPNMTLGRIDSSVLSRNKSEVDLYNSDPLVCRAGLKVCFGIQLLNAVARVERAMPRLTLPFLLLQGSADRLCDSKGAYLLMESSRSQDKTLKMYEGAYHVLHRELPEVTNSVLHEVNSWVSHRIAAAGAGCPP

SMILES	inhibition at 1 µM [1] [%]	inhibition at 1 µM [2, 4] [%]	IC50 [1] [nM]	also measured
O=C(OC(C(F)(F)F)C(F)(F)F)N1CCC2(CCCN2C(=O)C2(c3ccnc(C4CC4)n3)CC2)CC1 [Example 201, 1,1,1,3,3,3-Hexafluoropropan-2-yl 1-(1-(2-cyclopropylpyrimidin-4-yl)cyclopropane-1-carbonyl)-1,8-diazaspiro [4.5]decane-8-carboxylate]	> 75	> 75	–	inhibition at 1 µM [2, 3]: > 75%; IC50 [2, 5]: < 100 nM
Cc1cc(C(F)(F)F)n2nc(C(=O)N3CCCC34CCN(C(=O)OC(C(F)(F)F)C(F)(F)F)CC4)c(Cl)c2n1 [Example 121, 1,1,1,3,3,3-Hexafluoropropan-2-yl 1-(3-chloro-5-methyl-7-(trifluoromethyl)pyrazolo[1,5-a]pyrimidine-2-carbonyl)-1,8-diazaspiro[4.5] decane-8-carboxylate]	> 75	> 75	–	IC50 [2, 6]: < 100 nM
O=C(O)C1CCN(c2ncccc2CN2CCCC23CCN(C(=O)OC(C(F)(F)F)C(F)(F)F)CC3)CC1 [Example 124, 1-(3-((8-(((1,1,1,3,3,3-HexafIuoropropan-2-yl)oxy)carbonyl)-1,8-diazaspiro[4.5]decan-1-yl)methyl)pyridin-2-yl)piperidine-4-carboxylic acid]	> 75	25 to 75	–	–
Cn1cc(CN2CCCC23CCN(C(=O)OC(C(F)(F)F)C(F)(F)F)CC3)cn1 [Example 175, 1,1,1,3,3,3-Hexafluoropropan-2-yl 1-((1-methyl-1H-pyrazol-4-yl)methyl)-1,8-diazaspiro[4.5] decane-8-carboxylate]	25 to 75	> 75	–	inhibition at 1 µM [2, 3]: > 75%
O=C(OC(C(F)(F)F)C(F)(F)F)N1CCC2(CCCN2C(=O)C2(c3ncc(C4CC4)cn3)CC2)CC1 [Example 33, 1,1,1,3,3,3-Hexafluoropropan-2-yl 1-(1-(5-cyclopropylpyrimidin-2-yl)cyclopropane-1-carbonyl)-1,8-diazaspiro[4.5]decane-8-carboxylate]	> 75	–	–	inhibition at 1 µM [2, 3]: > 75%; IC50 [2, 6]: < 100 nM
O=C(OC(C(F)(F)F)C(F)(F)F)N1CCC2(CCN(Cc3ccnnc3)C2)CC1 [Example 106, 1,1,1,3,3,3-Hexafluoropropan-2-yl 2-(pyridazin-4-ylmethyl)-2,8-diazaspiro [4.5]decane-8-carboxylate]	–	> 75	–	–
O=C(Cc1nc(C(F)(F)F)ccc1CN1CCCC12CCN(C(=O)OC(C(F)(F)F)C(F)(F)F)CC2)NS(=O)(=O)C1CC1 [Example 35, 1,1,1,3,3,3-Hexafluoropropan-2-yl 1-((2-(2-(cyclopropanesulfonamido)-2-oxoethyl)-6-(trifluoromethyl)pyridin-3-yl)methyl)-1,8-diazaspiro[4.5]decane-8-carboxylate]	–	–	–	inhibition at 1 µM [2, 3]: > 75%
CC1(NC(=O)c2cn3c(n2)CN(C2CCC2)CC3)CCN(C(=O)OC(C(F)(F)F)C(F)(F)F)CC1 [Example 183, 1,1,1,3,3,3-Hexafluoropropan-2-yl 4-(7-cyclobutyl-5,6,7,8-tetrahydroimidazo[1,2-a]pyrazine-2-carboxamido)-4-methylpiperidine-1-carboxylate]	–	> 75	–	inhibition at 1 µM [2, 3]: > 75%; IC50 [2, 5]: < 100 nM
O=C(OC(C(F)(F)F)C(F)(F)F)N1CCC2(CCN(Cc3cccnn3)C2)CC1 [Example 9, 1,1,1,3,3,3-Hexafluoropropan-2-yl 2-(pyridazin-3-ylmethyl)-2,8-diazaspiro[4.5]decane-8-carboxylate]	–	> 75	–	–
O=C(OC(C(F)(F)F)C(F)(F)F)N1CCC2(CCCN2C(=O)c2nc3n(n2)CCCN3)CC1 [Example 153, 1,1,1,3,3,3-Hexafluoropropan-2-yl 1-(4,5,6,7-tetrahydro-[1,2,4]triazolo[1,5-a]pyrimidine-2-carbonyl)-1,8-diazaspiro[4.5]decane-8-carboxylate]	–	–	–	IC50 [2, 5]: < 100 nM
O=C(OC(C(F)(F)F)C(F)(F)F)N1CCC2(CCN(Cc3nccs3)C2)CC1 [Example 66, 1,1,1,3,3,3-Hexafluoropropan-2-yl 2-(thiazol-2-ylmethyl)-2,8-diazaspiro [4.5]decane-8-carboxylate]	> 75	–	< 100	–
O=C(OC(C(F)(F)F)C(F)(F)F)N1CCC2(CCCN2C(=O)c2cc3c(s2)CCNC3)CC1 [Example 152, 1,1,1,3,3,3-Hexafluoropropan-2-yl 1-(4,5,6,7-tetrahydrothieno[3,2-c]pyridine-2-carbonyl)-1,8-diazaspiro[4.5] decane-8-carboxylate]	–	–	–	IC50 [2, 5]: < 100 nM
O=C(OC(C(F)(F)F)C(F)(F)F)N1CCC2(CCN(Cc3ccncn3)C2)CC1 [Example 74, 1,1,1,3,3,3-Hexafluoropropan-2-yl 2-(pyrimidin-4-ylmethyl)-2,8-diazaspiro[4.5] decane-8-carboxylate]	> 75	–	< 100	–
O=C(OC(C(F)(F)F)C(F)(F)F)N1CCC2(CCN(Cc3ncccn3)C2)CC1 [Example 65, 1,1,1,3,3,3-Hexafluoropropan-2-yl 2-(pyrimidin-2-ylmethyl)-2,8-diazaspiro[4.5] decane-8-carboxylate]	> 75	–	–	–

Further lines, with some results ahead:

inhibition at 1 µM [1] [%]	inhibition at 1 µM [2, 4] [%]	IC50 [1] [nM]	SMILES	also measured
> 75	> 75	–	Cc1c(C(=O)N2CCCC23CCN(C(=O)OC(C(F)(F)F)C(F)(F)F)CC3)c(Cl)nn1C [Example 125, 1,1,1,3,3,3-Hexafluoropropan-2-yl 1-(3-chloro-1,5-dimethyl-1H-pyrazole-4-carbonyl)-1,8-diazaspiro[4.5] decane-8-carboxylate]	IC50 [2, 5]: < 100 nM
–	> 75	–	O=C(OC(C(F)(F)F)C(F)(F)F)N1CCC2(CCCN2C(=O)C(F)(F)c2ncccn2)CC1 [Example 32, 1,1,1,3,3,3-Hexafluoropropan-2-yl 1-(2,2-difluoro-2-(pyrimidin-2-yl)acetyl)-1,8-diazaspiro[4.5]decane-8-carboxylate]	inhibition at 1 µM [2, 3]: > 75%; IC50 [2, 5]: < 100 nM
–	> 75	–	O=C(OC(C(F)(F)F)C(F)(F)F)N1CCC2(CCCN2C(=O)C(F)(F)c2cnccn2)CC1 [Example 197, 1,1,1,3,3,3-Hexafluoropropan-2-yl 1-(2,2-difluoro-2-(pyrazin-2-yl)acetyl)-1,8-diazaspiro[4.5] decane-8-carboxylate]	inhibition at 1 µM [2, 3]: > 75%
> 75	–	–	O=C(OC(C(F)(F)F)C(F)(F)F)N1CCC2(CCCN2C(=O)c2cccnc2)CC1 [Example 13, 1,1,1,3,3,3-Hexafluoropropan-2-yl 1-nicotinoyl-1,8-diazaspiro[4.5]decane-8-carboxylate]	–
> 75	–	< 100	O=C(OC(C(F)(F)F)C(F)(F)F)N1CCC2(CCCN2C(=O)c2cc3ccccc3[nH]2)CC1 [Example 76, 1,1,1,3,3,3-Hexafluoropropan-2-yl 1-(1H-indole-2-carbonyl)-1,8-diazaspiro[4.5] decane-8-carboxylate]	–
> 75	–	< 100	O=C(OC(C(F)(F)F)C(F)(F)F)N1CCC2(CCCN2C(=O)c2cnn(-c3ccccc3)c2)CC1 [Example 72, 1,1,1,3,3,3-Hexafluoropropan-2-yl 1-(1-phenyl-1H-pyrazole-4-carbonyl)-1,8-diazaspiro[4.5] decane-8-carboxylate]	–
> 75	–	< 100	Cc1c(C(=O)N2CCCC23CCN(C(=O)OC(C(F)(F)F)C(F)(F)F)CC3)sc2ccccc12 [Example 94, 1,1,1,3,3,3-Hexafluoropropan-2-yl 1-(3-methylbenzo[b]thiophene-2-carbonyl)-1,8-diazaspiro[4.5] decane-8-carboxylate]	–
> 75	–	–	O=C(OC(C(F)(F)F)C(F)(F)F)N1CCC2(CCCN2C(=O)c2cc3cc(C(F)(F)F)ccc3[nH]2)CC1 [Example 100, 1,1,1,3,3,3-Hexafluoropropan-2-yl 1-(5-(trifluoromethyl)-1H-indole-2-carbonyl)-1,8-diazaspiro[4.5] decane-8-carboxylate]	–
–	–	100 to 1000	O=C(OC(C(F)(F)F)C(F)(F)F)N1CCC2(CCCN2Cc2c[nH]c3cccc(Cl)c23)CC1 [Example 45, 1,1,1,3,3,3-Hexafluoropropan-2-yl 1-((4-chloro-1H-indol-3-yl)methyl)-1,8-diazaspiro[4.5] decane-8-carboxylate]	–
> 75	–	–	Cc1c(CN2CCCC23CCN(C(=O)OC(C(F)(F)F)C(F)(F)F)CC3)[nH]c2ccc(Cl)cc12 [Example 48, 1,1,1,3,3,3-Hexafluoropropan-2-yl 1-((5-chloro-3-methyl-1H-indol-2-yl)methyl)-1,8-diazaspiro[4.5] decane-8-carboxylate]	–
> 75	–	< 100	O=C(OC(C(F)(F)F)C(F)(F)F)N1CCC2(CCCN2C(=O)c2cc3ccccc3s2)CC1 [Example 80, 1,1,1,3,3,3-Hexafluoropropan-2-yl 1-(benzo[b]thiophene-2-carbonyl)-1,8-diazaspiro[4.5] decane-8-carboxylate]	–
> 75	–	< 100	O=C(OC(C(F)(F)F)C(F)(F)F)N1CCC2(CCCN2Cc2cc3cc(Cl)ccc3[nH]2)CC1 [Example 224, 1,1,1,3,3,3-Hexafluoropropan-2-yl 1-((5-chloro-1H-indol-2-yl)methyl)-1,8-diazaspiro[4.5]decane-8-carboxylate]	–
> 75	–	< 100	Cc1cccc2cc(C(=O)N3CCCC34CCN(C(=O)OC(C(F)(F)F)C(F)(F)F)CC4)[nH]c12 [Example 108, 1,1,1,3,3,3-Hexafluoropropan-2-yl 1-(7-methyl-1H-indole-2-carbonyl)-1,8-diazaspiro[4.5] decane-8-carboxylate]	–
